Experimental data from the NIST ThermoML archive (doi:10.1016/j.tca.2015.02.004).
Several values for one entry are separate records, joined by “and”; a condition that tells them apart may be missing. Equal values may be shown once. Numbers after ± are expanded uncertainties.

Tests used:
[1] = Liquid, Diaphragm manometer
[2] = Boiling temperature at pressure P; details: Liquid, Distillation

C[Si](C)(C)c1ccccc1 [trimethylphenylsilane]
vapor or sublimation pressure ([1]; 296.7 K): 0.33 ± 0.13 kPa | vapor or sublimation pressure ([1]; 297.7 K): 0.29 ± 0.13 kPa | vapor or sublimation pressure ([1]; 298.8 K): 0.31 ± 0.13 kPa | vapor or sublimation pressure ([1]; 322.2 K): 1.14 ± 0.14 kPa | vapor or sublimation pressure ([1]; 322.7 K): 1.28 ± 0.14 kPa | vapor or sublimation pressure ([1]; 333.2 K): 2.02 ± 0.16 kPa | vapor or sublimation pressure ([1]; 343.7 K): 3.24 ± 0.2 kPa | vapor or sublimation pressure ([1]; 352.2 K): 4.73 ± 0.31 kPa | vapor or sublimation pressure ([1]; 352.8 K): 4.91 ± 0.31 kPa | vapor or sublimation pressure ([1]; 371.9 K): 10.63 ± 0.27 kPa | vapor or sublimation pressure ([1]; 372.2 K): 11.04 ± 0.42 kPa | vapor or sublimation pressure ([1]; 373.2 K): 10.82 ± 0.27 kPa | vapor or sublimation pressure ([1]; 382.9 K): 15.75 ± 0.68 kPa | vapor or sublimation pressure ([1]; 391 K): 21.76 ± 0.42 kPa | vapor or sublimation pressure ([1]; 392.1 K): 21.75 ± 0.42 kPa | vapor or sublimation pressure ([1]; 392.4 K): 22.02 ± 0.47 kPa | vapor or sublimation pressure ([1]; 401.1 K): 29.35 ± 1 kPa | Boiling temperature at pressure P ([2]; 1.866 kPa): 56.00 ± 2 °C

C[Si](C)(C)NCc1ccccc1 [(benzylamino)trimethylsilane]
Boiling temperature at pressure P ([2]; 2 kPa): 98.00 ± 2 °C

C[Si](C)(C)N(c1ccccc1)[Si](C)(C)C [N,N-bis(trimethylsilyl)aniline]
vapor or sublimation pressure ([1]; 321.8 K): 0.15 ± 0.13 kPa | vapor or sublimation pressure ([1]; 322.1 K): 0.2 ± 0.13 kPa | vapor or sublimation pressure ([1]; 330.7 K): 0.29 ± 0.13 kPa | vapor or sublimation pressure ([1]; 331.2 K): 0.24 ± 0.13 kPa | vapor or sublimation pressure ([1]; 331.4 K): 0.26 ± 0.13 kPa | vapor or sublimation pressure ([1]; 341.9 K): 0.36 ± 0.13 kPa | vapor or sublimation pressure ([1]; 351.2 K): 0.59 ± 0.13 kPa and 0.61 ± 0.13 kPa | vapor or sublimation pressure ([1]; 351.4 K): 0.59 ± 0.13 kPa | vapor or sublimation pressure ([1]; 361.1 K): 0.96 ± 0.14 kPa | vapor or sublimation pressure ([1]; 361.2 K): 1 ± 0.14 kPa | vapor or sublimation pressure ([1]; 371.2 K): 1.56 ± 0.15 kPa | vapor or sublimation pressure ([1]; 380.7 K): 2.34 ± 0.17 kPa | vapor or sublimation pressure ([1]; 381.2 K): 2.32 ± 0.17 kPa | vapor or sublimation pressure ([1]; 390.9 K): 3.54 ± 0.21 kPa | vapor or sublimation pressure ([1]; 400.5 K): 5.22 ± 0.26 kPa | vapor or sublimation pressure ([1]; 400.7 K): 5.19 ± 0.26 kPa | vapor or sublimation pressure ([1]; 400.9 K): 5.65 ± 0.26 kPa | vapor or sublimation pressure ([1]; 410.7 K): 7.51 ± 0.32 kPa | vapor or sublimation pressure ([1]; 411 K): 7.35 ± 0.32 kPa | vapor or sublimation pressure ([1]; 421.4 K): 10.96 ± 0.44 kPa | vapor or sublimation pressure ([1]; 421.5 K): 10.91 ± 0.44 kPa | vapor or sublimation pressure ([1]; 421.9 K): 10.9 ± 0.44 kPa | vapor or sublimation pressure ([1]; 431.7 K): 15.13 ± 0.58 kPa | vapor or sublimation pressure ([1]; 441.2 K): 20.51 ± 0.74 kPa | vapor or sublimation pressure ([1]; 441.6 K): 20.37 ± 0.74 kPa | vapor or sublimation pressure ([1]; 451.2 K): 27.3 ± 0.9 kPa | Boiling temperature at pressure P ([2]; 0.267 kPa): 60.00 ± 8 °C

C[Si](C)(C)Nc1ccccc1 [trimethyl(phenylamino)silane]
vapor or sublimation pressure ([1]; 311.6 K): 0.2 ± 0.13 kPa | vapor or sublimation pressure ([1]; 312.8 K): 0.24 ± 0.13 kPa | vapor or sublimation pressure ([1]; 332.5 K): 0.65 ± 0.14 kPa | vapor or sublimation pressure ([1]; 350.9 K): 1.64 ± 0.15 kPa | vapor or sublimation pressure ([1]; 371.8 K): 3.76 ± 0.21 kPa | vapor or sublimation pressure ([1]; 372.1 K): 3.79 ± 0.21 kPa | vapor or sublimation pressure ([1]; 390 K): 7.38 ± 0.39 kPa | vapor or sublimation pressure ([1]; 391.4 K): 7.86 ± 0.39 kPa | vapor or sublimation pressure ([1]; 391.6 K): 7.85 ± 0.35 kPa | vapor or sublimation pressure ([1]; 410.6 K): 14.88 ± 0.53 kPa | vapor or sublimation pressure ([1]; 411.6 K): 15.98 ± 0.54 kPa | vapor or sublimation pressure ([1]; 421.7 K): 21.19 ± 0.74 kPa | vapor or sublimation pressure ([1]; 422.7 K): 22.43 ± 0.76 kPa | vapor or sublimation pressure ([1]; 431.8 K): 28.53 ± 1.1 kPa | vapor or sublimation pressure ([1]; 432.7 K): 30.61 ± 1.1 kPa | vapor or sublimation pressure ([1]; 446.1 K): 43.07 ± 1.4 kPa | vapor or sublimation pressure ([1]; 452.1 K): 52.87 ± 1.7 kPa | vapor or sublimation pressure ([1]; 455.2 K): 55.6 ± 1.4 kPa | Boiling temperature at pressure P ([2]; 0.4 kPa): 56.00 ± 7 °C

C[Si](C)(C)N[Si](C)(C)C [1,1,1,3,3,3-hexamethyldisilazane]
vapor or sublimation pressure ([1]; 290.8 K): 1.51 ± 0.19 kPa | vapor or sublimation pressure ([1]; 290.9 K): 1.54 ± 0.18 kPa | vapor or sublimation pressure ([1]; 292 K): 1.68 ± 0.15 kPa | vapor or sublimation pressure ([1]; 293.5 K): 1.73 ± 0.14 kPa | vapor or sublimation pressure ([1]; 301.1 K): 2.71 ± 0.2 kPa | vapor or sublimation pressure ([1]; 301.5 K): 2.68 ± 0.2 kPa | vapor or sublimation pressure ([1]; 311.4 K): 4.25 ± 0.23 kPa | vapor or sublimation pressure ([1]; 312.4 K): 4.36 ± 0.23 kPa | vapor or sublimation pressure ([1]; 320.2 K): 5.93 ± 0.35 kPa | vapor or sublimation pressure ([1]; 321.2 K): 6.6 ± 0.36 kPa | vapor or sublimation pressure ([1]; 329.7 K): 9.72 ± 0.46 kPa | vapor or sublimation pressure ([1]; 330.9 K): 10.21 ± 0.47 kPa | vapor or sublimation pressure ([1]; 331.8 K): 10.3 ± 0.55 kPa | vapor or sublimation pressure ([1]; 340.1 K): 14.79 ± 0.65 kPa | vapor or sublimation pressure ([1]; 341.1 K): 15.35 ± 0.57 kPa | vapor or sublimation pressure ([1]; 349.8 K): 20.68 ± 2 kPa | vapor or sublimation pressure ([1]; 352.7 K): 23.41 ± 1 kPa | vapor or sublimation pressure ([1]; 360.3 K): 30.3 ± 1.3 kPa | vapor or sublimation pressure ([1]; 360.5 K): 31.34 ± 1.3 kPa | vapor or sublimation pressure ([1]; 370 K): 42.85 ± 1.6 kPa | vapor or sublimation pressure ([1]; 371.8 K): 45.32 ± 1.6 kPa | vapor or sublimation pressure ([1]; 382.2 K): 59.76 ± 1.8 kPa
